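Following 48 hours of exposure in 96-well plates, responses at five concentrations were used to interpolate endpoints linearly. Definition used: TGI = concentration required for complete inhibition of growth.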
Columns and labels:
Test in all cases: NCI-60 cell line screen, 48 h
CAKI-1 renal = system: CAKI-1 renal
DU-145 prostate = system: DU-145 prostate
HCT-15 colon = system: HCT-15 colon
HOP-92 NSCLC = system: HOP-92 NSCLC
MCF7 breast = system: MCF7 breast
MDA-MB-231 breast = system: MDA-MB-231 breast
MDA-N = system: MDA-N
MOLT-4 leukemia = system: MOLT-4 leukemia
NCI/ADR-RES ovarian = system: NCI/ADR-RES ovarian
PC-3 prostate = system: PC-3 prostate
SK-MEL-2 melanoma = system: SK-MEL-2 melanoma
T-47D breast = system: T-47D breast
DLD-1 colon = system: DLD-1 colon
DMS 114 small cell lung = system: DMS 114 small cell lung
DMS 273 small cell lung = system: DMS 273 small cell lung
KM20L2 colon = system: KM20L2 colon
LXFL 529 NSCLC = system: LXFL 529 NSCLC
M19-MEL melanoma = system: M19-MEL melanoma
MALME-3M melanoma = system: MALME-3M melanoma
HT29 colon = system: HT29 colon

Measured: TGI

CC1OC1C(=O)P(=O)(O)O (stereo not given)
not listed: DLD-1 colon | DMS 114 small cell lung | DMS 273 small cell lung | KM20L2 colon | LXFL 529 NSCLC | M19-MEL melanoma | MALME-3M melanoma | HT29 colon
> 100 µM: all other assays above

CCOC(=O)c1ccc(N2C(=O)/C(=C/c3ccc(N(CCC#N)CCC#N)cc3)N=C2c2cc([N+](=O)[O-])ccc2Cl)cc1
not listed: DU-145 prostate | MCF7 breast | MDA-MB-231 breast | MDA-N | NCI/ADR-RES ovarian | PC-3 prostate | T-47D breast | HT29 colon
> 100 µM: all other assays above

Cc1ccccc1NC(=O)C(=O)C(C1OC(=O)c2ccccc21)[N+](=O)[O-] (stereo not given)
not listed: DU-145 prostate | MCF7 breast | MDA-MB-231 breast | MDA-N | NCI/ADR-RES ovarian | PC-3 prostate | T-47D breast | MALME-3M melanoma
> 100 µM: all other assays above

NCC(=O)N[C@H]1c2ccsc2/C(=N/O)[C@H]1O
not listed: DLD-1 colon | DMS 114 small cell lung | DMS 273 small cell lung | KM20L2 colon | LXFL 529 NSCLC | M19-MEL melanoma
> 100 µM: all other assays above

Reference: PubChem BioAssay (NCI)
